Laboratory results from ChEMBL document CHEMBL4507268 (2021).

Columns and labels:
[1] = molecular target: BMP-2-inducible protein kinase (Homo sapiens) (UniProt Q9NSY1); details: Compound concentration 1000.0 nM
[2] = molecular target: Calcium/calmodulin-dependent protein kinase type II subunit delta (Homo sapiens) (UniProt Q13557); details: Compound concentration 1000.0 nM
[3] = system: Epidermal growth factor receptor (Homo sapiens), P00533 [UNDEFINED MUTATION]; details: Compound concentration 1000.0 nM
[4] = system: Epidermal growth factor receptor (Homo sapiens), P00533 [G719C]; details: Compound concentration 1000.0 nM
[5] = molecular target: Mitogen-activated protein kinase 4 (Homo sapiens) (UniProt P31152); details: Compound concentration 1000.0 nM
[6] = system: Receptor-type tyrosine-protein kinase FLT3 (Homo sapiens), P36888 [N841I]; details: Compound concentration 1000.0 nM
[7] = molecular target: T1, Homeodomain-interacting protein kinase 4 (Homo sapiens) (UniProt Q8NE63); details: Compound concentration 1000.0 nM
T1 sequence (whole entry): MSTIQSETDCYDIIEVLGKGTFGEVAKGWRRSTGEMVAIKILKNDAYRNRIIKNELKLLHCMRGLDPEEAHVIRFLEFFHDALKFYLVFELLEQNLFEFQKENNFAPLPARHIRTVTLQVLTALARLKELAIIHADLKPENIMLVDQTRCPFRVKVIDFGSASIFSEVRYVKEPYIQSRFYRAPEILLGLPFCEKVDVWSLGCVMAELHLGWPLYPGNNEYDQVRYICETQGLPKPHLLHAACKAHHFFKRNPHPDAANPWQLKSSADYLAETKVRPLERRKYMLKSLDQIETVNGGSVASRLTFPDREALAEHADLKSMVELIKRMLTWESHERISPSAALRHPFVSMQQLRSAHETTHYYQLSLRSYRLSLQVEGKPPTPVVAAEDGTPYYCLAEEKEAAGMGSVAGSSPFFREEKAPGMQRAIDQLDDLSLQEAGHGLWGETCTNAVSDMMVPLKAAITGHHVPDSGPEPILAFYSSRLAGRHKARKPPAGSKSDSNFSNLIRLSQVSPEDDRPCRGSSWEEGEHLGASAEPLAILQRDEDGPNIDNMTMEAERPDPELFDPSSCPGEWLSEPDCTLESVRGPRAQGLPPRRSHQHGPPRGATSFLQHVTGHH

[8] = molecular target: Mast/stem cell growth factor receptor Kit (Homo sapiens) (UniProt P10721); details: Compound concentration 1000.0 nM
[9] = molecular target: T2, Serine/threonine-protein kinase 4 (Homo sapiens) (UniProt Q13043); details: Compound concentration 1000.0 nM
T2 sequence (whole entry): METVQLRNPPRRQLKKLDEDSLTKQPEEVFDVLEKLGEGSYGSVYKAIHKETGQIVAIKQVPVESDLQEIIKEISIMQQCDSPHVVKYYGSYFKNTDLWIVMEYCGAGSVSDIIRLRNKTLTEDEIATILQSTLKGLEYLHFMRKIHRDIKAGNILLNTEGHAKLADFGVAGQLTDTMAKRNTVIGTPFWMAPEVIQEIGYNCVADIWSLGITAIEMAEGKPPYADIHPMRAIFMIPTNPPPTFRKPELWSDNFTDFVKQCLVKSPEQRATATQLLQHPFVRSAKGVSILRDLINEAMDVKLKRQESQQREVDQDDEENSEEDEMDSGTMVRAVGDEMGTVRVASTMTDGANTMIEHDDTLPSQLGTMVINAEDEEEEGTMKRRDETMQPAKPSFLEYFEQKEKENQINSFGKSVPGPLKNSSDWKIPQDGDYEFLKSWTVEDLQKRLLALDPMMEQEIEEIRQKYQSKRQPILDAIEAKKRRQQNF

[10] = molecular target: Cyclin-dependent kinase 17 (Homo sapiens) (UniProt Q00537); details: Compound concentration 1000.0 nM
[11] = molecular target: Calcium-dependent protein kinase 1 (Plasmodium falciparum) (UniProt P62344); details: Compound concentration 1000.0 nM
[12] = molecular target: Phosphatidylinositol 4,5-bisphosphate 3-kinase catalytic subunit gamma isoform (Homo sapiens) (UniProt P48736); details: Compound concentration 1000.0 nM
[13] = molecular target: 1-phosphatidylinositol 3-phosphate 5-kinase (Homo sapiens) (UniProt Q9Y2I7); details: Compound concentration 1000.0 nM
[14] = molecular target: Phosphatidylinositol 4-phosphate 5-kinase type-1 alpha (Homo sapiens) (UniProt Q99755); details: Compound concentration 1000.0 nM
[15] = molecular target: Serine/threonine-protein kinase PknB (Mycobacterium tuberculosis) (UniProt P9WI81); details: Compound concentration 1000.0 nM
[16] = molecular target: T3, cGMP-dependent protein kinase 2 (Homo sapiens) (UniProt Q13237); details: Compound concentration 1000.0 nM
T3 sequence (whole entry): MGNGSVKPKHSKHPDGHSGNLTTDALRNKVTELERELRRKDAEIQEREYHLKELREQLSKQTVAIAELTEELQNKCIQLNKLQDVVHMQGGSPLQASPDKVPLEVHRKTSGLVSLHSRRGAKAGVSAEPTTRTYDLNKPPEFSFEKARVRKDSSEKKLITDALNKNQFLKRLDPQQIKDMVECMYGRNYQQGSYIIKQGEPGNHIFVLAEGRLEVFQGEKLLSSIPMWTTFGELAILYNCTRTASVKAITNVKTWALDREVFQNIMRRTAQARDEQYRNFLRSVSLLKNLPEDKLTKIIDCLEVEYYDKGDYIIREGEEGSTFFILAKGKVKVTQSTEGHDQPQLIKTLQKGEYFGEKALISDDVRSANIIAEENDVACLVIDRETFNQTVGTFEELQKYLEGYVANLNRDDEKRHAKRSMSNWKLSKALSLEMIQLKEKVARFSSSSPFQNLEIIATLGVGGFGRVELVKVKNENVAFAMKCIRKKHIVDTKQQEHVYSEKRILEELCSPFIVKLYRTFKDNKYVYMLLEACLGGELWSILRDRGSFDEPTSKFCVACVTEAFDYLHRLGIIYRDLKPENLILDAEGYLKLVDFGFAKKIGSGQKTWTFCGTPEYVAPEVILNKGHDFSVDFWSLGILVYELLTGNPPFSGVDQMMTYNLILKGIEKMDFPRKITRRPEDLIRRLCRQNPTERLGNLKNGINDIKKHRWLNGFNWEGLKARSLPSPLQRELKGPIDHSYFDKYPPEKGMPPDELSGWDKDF

[17] = molecular target: Ribosomal protein S6 kinase alpha-4 (Homo sapiens) (UniProt O75676); details: Compound concentration 1000.0 nM
[18] = molecular target: Ribosomal protein S6 kinase alpha-1 (Homo sapiens) (UniProt Q15418); details: Compound concentration 1000.0 nM
[19] = molecular target: SRSF protein kinase 1 (Homo sapiens) (UniProt Q96SB4); details: Compound concentration 1000.0 nM
[20] = molecular target: Muscarinic acetylcholine receptor M2 (Homo sapiens) (UniProt P08172); details: Compound concentration 10.0 uM
Muscarinic acetylcholine receptor M2 (Homo sapiens), sequence (P08172 whole entry): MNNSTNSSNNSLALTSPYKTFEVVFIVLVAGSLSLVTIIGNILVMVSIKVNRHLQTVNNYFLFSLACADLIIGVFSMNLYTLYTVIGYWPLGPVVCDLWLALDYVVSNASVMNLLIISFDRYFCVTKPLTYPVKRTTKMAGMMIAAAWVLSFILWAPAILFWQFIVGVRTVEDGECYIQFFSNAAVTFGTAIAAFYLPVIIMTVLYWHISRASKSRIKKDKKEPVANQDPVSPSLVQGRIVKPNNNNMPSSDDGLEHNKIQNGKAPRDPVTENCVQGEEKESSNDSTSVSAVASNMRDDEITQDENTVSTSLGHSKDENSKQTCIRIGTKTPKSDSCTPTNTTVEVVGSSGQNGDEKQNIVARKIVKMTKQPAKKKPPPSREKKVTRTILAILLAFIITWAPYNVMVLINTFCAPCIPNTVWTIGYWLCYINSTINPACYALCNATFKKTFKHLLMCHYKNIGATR

Ribosomal protein S6 kinase alpha-4 (Homo sapiens), sequence (O75676 whole entry, looked up): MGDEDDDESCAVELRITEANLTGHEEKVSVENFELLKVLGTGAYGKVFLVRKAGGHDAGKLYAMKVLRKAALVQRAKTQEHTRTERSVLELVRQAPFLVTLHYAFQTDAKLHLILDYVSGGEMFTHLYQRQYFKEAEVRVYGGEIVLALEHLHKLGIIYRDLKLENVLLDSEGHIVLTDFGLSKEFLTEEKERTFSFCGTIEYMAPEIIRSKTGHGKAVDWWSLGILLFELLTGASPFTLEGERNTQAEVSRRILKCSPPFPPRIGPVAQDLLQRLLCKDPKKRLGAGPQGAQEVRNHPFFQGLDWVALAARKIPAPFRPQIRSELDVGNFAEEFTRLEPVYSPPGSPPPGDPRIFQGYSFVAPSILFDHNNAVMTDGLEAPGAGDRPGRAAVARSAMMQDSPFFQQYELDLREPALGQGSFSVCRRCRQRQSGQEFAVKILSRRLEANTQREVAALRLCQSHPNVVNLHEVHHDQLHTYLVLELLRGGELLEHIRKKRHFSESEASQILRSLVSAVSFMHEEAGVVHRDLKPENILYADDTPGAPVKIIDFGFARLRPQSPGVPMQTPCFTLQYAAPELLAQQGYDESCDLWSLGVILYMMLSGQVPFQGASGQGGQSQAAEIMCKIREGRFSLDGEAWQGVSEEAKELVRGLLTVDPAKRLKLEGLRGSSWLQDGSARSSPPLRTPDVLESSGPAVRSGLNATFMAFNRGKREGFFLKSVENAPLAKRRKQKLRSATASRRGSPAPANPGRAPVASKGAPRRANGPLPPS
SRSF protein kinase 1 (Homo sapiens), sequence (Q96SB4 whole entry): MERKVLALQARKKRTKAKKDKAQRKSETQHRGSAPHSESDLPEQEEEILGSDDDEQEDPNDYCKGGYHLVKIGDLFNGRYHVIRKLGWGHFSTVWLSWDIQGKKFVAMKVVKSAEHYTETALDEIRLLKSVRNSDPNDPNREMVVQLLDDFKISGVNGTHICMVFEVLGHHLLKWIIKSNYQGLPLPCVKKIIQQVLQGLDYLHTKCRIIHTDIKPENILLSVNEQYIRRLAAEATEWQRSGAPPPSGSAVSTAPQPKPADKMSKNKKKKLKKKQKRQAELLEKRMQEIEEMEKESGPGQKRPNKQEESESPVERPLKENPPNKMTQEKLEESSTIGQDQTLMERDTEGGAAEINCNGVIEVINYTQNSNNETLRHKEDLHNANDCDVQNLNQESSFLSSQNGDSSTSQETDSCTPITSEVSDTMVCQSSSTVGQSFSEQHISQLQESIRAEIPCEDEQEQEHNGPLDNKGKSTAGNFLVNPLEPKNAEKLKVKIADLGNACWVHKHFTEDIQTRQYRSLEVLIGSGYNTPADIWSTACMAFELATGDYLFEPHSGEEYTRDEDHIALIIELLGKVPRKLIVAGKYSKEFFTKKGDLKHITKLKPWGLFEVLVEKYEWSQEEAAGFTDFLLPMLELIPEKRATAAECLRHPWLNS
Cyclin-dependent kinase 17 (Homo sapiens), sequence (Q00537 whole entry, looked up): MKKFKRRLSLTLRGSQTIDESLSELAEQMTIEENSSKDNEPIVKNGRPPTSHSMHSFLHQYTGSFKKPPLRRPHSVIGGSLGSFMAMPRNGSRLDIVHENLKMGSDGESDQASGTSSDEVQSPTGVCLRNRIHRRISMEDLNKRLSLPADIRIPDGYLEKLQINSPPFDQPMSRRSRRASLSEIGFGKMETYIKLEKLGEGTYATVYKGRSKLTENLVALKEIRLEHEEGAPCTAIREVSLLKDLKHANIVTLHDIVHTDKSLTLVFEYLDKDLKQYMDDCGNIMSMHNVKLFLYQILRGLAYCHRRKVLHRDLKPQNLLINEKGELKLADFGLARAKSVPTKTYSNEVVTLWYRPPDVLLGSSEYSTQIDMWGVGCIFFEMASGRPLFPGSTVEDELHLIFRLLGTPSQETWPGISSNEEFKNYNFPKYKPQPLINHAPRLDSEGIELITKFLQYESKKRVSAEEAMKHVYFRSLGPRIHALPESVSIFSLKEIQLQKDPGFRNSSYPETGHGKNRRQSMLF
1-phosphatidylinositol 3-phosphate 5-kinase (Homo sapiens), sequence (Q9Y2I7 whole entry): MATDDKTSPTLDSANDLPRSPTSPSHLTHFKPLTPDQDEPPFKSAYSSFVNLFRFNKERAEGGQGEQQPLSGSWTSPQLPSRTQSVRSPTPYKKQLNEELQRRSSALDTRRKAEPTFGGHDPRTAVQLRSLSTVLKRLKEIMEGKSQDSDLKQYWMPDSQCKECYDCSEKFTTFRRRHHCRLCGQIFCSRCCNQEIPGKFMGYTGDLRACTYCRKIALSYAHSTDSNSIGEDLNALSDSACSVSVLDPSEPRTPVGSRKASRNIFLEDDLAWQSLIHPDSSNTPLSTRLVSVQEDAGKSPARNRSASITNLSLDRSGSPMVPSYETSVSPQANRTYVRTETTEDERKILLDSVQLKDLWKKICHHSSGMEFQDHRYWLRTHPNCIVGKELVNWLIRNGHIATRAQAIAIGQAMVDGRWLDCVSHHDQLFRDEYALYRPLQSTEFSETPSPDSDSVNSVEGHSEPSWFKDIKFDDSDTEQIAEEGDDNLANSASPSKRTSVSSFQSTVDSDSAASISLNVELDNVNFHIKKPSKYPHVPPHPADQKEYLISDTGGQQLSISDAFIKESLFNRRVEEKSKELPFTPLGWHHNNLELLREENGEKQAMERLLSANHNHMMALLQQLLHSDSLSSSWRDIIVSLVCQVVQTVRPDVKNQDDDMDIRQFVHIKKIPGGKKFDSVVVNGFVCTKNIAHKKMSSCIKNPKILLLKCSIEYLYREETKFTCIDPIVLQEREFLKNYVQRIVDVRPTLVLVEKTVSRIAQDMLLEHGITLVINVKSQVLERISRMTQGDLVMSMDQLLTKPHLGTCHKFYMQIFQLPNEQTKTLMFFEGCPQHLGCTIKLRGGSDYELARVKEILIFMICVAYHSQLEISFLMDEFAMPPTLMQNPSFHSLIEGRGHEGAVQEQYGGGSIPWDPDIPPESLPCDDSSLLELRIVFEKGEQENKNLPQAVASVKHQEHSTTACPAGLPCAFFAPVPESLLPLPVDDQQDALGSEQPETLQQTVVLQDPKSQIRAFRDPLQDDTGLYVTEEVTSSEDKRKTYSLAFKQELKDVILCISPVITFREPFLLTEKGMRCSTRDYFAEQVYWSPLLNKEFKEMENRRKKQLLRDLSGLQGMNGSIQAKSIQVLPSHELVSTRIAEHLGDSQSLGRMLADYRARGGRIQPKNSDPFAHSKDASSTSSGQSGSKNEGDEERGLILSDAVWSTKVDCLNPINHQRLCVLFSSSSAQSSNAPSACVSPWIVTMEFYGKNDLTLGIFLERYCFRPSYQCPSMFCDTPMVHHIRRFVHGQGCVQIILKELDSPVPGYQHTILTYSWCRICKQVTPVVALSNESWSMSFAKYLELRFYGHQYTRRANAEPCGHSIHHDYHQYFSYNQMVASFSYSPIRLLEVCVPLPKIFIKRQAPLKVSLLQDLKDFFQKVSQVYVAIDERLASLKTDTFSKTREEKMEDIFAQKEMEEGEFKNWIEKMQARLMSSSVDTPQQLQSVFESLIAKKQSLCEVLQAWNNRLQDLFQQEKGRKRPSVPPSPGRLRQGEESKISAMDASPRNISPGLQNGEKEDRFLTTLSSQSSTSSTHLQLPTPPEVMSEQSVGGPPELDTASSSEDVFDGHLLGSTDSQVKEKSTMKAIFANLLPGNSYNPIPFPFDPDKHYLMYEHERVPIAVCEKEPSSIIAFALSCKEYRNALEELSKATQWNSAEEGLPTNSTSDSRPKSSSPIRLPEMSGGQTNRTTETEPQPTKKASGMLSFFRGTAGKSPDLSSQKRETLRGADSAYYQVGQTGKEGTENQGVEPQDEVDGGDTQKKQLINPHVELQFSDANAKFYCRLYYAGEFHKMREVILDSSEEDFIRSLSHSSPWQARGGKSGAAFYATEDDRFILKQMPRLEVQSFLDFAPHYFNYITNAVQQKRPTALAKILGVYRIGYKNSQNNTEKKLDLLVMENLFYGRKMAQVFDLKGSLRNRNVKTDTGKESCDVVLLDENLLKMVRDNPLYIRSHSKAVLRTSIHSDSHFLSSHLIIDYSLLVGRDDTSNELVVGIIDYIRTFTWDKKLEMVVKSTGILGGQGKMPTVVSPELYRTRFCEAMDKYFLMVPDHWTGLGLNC
Calcium/calmodulin-dependent protein kinase type II subunit delta (Homo sapiens), sequence (Q13557 whole entry): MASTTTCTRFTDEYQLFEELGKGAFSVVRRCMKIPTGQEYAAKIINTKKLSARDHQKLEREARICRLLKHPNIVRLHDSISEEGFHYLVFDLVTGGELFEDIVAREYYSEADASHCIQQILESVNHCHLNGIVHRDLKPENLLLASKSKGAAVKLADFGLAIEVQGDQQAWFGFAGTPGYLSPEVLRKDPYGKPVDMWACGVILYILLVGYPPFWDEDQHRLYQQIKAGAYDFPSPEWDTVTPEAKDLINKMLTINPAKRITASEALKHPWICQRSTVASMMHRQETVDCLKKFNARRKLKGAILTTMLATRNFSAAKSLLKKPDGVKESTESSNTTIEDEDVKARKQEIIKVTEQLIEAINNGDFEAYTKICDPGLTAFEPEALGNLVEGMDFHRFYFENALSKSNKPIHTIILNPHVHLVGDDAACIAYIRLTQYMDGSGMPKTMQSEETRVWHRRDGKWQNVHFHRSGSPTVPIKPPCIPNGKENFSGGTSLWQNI

Cc1nc(C2CCN(C(=O)c3ccc(OC(F)(F)F)cc3N)CC2)c2ncc(N3CCN(C)CC3)cc2n1 [BAY-693]
inactive: residual activity [1] 100% | residual activity [2] 100% | residual activity [3] 100% | residual activity [4] 100% | residual activity [5] 91% | residual activity [6] 100% | residual activity [7] 88% | residual activity [8] 90% | residual activity [9] 85% | residual activity [10] 88% | residual activity [11] 100% | residual activity [12] 79% | residual activity [13] 100% | residual activity [14] 63% | residual activity [15] 100% | residual activity [16] 74% | residual activity [17] 100% | residual activity [18] 93% | residual activity [19] 79% | inhibition [20] -1%

CN1CCN(c2cnc3c(C4CCN(C(=O)c5ccc(OC(F)(F)F)cc5N)CC4)ncnc3c2)CC1 [BAY-885]
inactive: residual activity [1] 97% | residual activity [2] 100% | residual activity [3] 100% | residual activity [4] 94% | residual activity [5] 100% | residual activity [6] 100% | residual activity [7] 100% | residual activity [8] 98% | residual activity [9] 84% | residual activity [10] 93% | residual activity [11] 100% | residual activity [12] 95% | residual activity [13] 98% | residual activity [14] 64% | residual activity [15] 97% | residual activity [16] 77% | residual activity [17] 100% | residual activity [18] 100% | residual activity [19] 88% | inhibition [20] -0.56%
